Measurements published in US20240238424A1, “HETEROBIFUNCTIONAL COMPOUNDS AND METHODS OF TREATING DISEASE” (Halda Therapeutics OpCo, Inc., priority 2021, published 2024).

Legend:
Assay type in all cases: cell-based
[1] = system: U937 cells; assay: Cellular growth inhibition assay (CTG), U937 cells; settings: Homo sapiens, U-937, CellTiter-Glo 2.0, day-5
Experimental: (§1) Cells were seeded in Poly-D-lysine-treated 384-well white plates, with 25 μL cell suspension at 250 cells/well for continuous treatments, and 1000 cells/well for washout treatments. Plates were spun at 300×g for 3 minutes, and cells were cultured at 37° C. with 5% CO2 in a humidified tissue culture incubator.
(§2) After 24 hours, the test compounds were diluted with cell culture medium in 96 deep well plates. DMSO was used as a negative control. A 25 μL aliquot of compound-containing medium was added in each well, at a final top concentration of 10 μM or 30 μM test compound, with 3-fold dilutions. For washout assays, after 4 hours, cell medium with compound was removed, and the cells were washed with 75p L fresh medium. Plates were then spun at 300×g for 3 minutes and replaced with 50 μL fresh medium in each well. Plates were then spun at 300×g for 3 minutes again and cultured at 37° C. with 5% CO2.
(§3) At day-0 and day-5 of compound treatments, cell viability was quantified with CellTiter-Glo 2.0 (Promega). After equilibrating cell plates at room temperature for 30 minutes, 25 μL CellTiter-Glo 2.0 reagent was dispensed into each well (on top of 50 μL of cell culture). Plates were mixed on a shaker for 2 minutes at 500 rpm, followed by a 10-minute incubation at room temperature. Luminescence readings were measured with an EnVision Plate Reader. Data was normalized to DMSO treated day-0 cell wells. A four-parameter non-linear regression curve fit was applied to dose-response data in Prism to determine the half maximal growth inhibitory concentration (GI50) of each compound.

[2] = biological target: T1, GSPT1 (Homo sapiens, UniProt P15170+Q96SW2); assay: GSPT1 HiBit degradation assay; settings: HEK293 LgBiT cells expressing GSPT1_HiBiT, luminescence after 6 hours
T1 construct: host or cells: HEK293 LgBiT cell line
T1 sequence (P15170 whole entry): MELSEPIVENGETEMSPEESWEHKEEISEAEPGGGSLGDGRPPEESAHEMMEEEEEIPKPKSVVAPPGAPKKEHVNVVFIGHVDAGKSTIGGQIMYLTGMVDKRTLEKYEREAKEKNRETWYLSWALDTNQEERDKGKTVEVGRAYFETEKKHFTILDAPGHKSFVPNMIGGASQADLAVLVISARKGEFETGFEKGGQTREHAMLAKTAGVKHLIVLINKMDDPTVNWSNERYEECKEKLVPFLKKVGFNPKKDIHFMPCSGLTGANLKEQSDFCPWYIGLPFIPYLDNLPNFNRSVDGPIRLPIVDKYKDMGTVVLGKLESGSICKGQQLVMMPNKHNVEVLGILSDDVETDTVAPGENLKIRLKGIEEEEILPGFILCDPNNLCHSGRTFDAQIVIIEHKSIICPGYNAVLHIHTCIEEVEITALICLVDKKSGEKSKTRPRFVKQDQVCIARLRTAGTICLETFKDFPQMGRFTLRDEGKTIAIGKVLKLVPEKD
T1 sequence (Q96SW2 whole entry): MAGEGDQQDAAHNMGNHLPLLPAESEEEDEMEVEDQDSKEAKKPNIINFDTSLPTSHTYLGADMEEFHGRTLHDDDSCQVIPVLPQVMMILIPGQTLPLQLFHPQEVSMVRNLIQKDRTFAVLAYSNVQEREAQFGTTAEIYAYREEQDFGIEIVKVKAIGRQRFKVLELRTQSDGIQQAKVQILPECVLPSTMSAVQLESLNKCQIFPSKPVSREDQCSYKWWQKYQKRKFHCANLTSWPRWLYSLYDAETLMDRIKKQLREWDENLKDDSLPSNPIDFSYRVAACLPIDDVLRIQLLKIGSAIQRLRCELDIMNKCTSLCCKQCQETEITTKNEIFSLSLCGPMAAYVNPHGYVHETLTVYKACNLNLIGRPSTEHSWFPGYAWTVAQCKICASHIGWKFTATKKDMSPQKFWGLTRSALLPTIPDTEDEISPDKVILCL
T1 sequence (Q16531 whole entry partner): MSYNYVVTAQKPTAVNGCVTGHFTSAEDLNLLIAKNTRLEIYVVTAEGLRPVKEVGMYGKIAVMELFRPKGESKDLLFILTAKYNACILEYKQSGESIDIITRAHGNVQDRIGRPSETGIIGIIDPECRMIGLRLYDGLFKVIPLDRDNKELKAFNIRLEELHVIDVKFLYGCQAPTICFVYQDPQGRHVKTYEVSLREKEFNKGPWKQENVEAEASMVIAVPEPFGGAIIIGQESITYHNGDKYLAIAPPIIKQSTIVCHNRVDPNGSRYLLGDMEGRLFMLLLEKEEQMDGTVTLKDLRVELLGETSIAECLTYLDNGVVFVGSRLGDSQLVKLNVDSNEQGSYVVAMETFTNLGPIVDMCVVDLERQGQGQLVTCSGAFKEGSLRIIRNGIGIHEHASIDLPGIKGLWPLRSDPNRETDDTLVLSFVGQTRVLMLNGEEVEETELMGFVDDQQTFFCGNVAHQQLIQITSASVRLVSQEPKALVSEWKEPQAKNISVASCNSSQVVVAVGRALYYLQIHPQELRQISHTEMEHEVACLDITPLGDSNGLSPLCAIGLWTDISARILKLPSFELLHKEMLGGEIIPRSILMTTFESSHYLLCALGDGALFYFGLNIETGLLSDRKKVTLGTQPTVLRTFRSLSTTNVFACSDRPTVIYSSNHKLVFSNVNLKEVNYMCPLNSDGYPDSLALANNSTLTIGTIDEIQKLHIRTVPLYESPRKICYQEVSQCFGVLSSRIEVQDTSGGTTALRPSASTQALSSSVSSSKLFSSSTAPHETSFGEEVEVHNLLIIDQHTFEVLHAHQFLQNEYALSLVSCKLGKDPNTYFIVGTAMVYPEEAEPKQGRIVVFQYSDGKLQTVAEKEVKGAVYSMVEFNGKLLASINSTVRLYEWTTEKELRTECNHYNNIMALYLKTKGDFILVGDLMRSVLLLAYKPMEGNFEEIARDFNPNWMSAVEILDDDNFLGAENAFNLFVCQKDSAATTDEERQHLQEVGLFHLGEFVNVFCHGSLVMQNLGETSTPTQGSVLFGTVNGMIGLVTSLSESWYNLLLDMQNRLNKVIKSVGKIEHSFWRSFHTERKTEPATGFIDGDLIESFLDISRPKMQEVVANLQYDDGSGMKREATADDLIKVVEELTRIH
How it was run: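 Degradation readout is luminescence at 6 h, with DC50 taken as the concentration giving 50% GSPT1 loss. Compound titrations were added together with endurazine (0.5× final) to HEK293 LgBiT/GSPT1-HiBiT cells seeded the day before and kept at 37 °C.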

[3] = system: 293 mutant EGFR_T790M L858R Cells; assay: Cellular growth inhibition assay (CTG), 293 mutant EGFR_T790M L858R cells; settings: 293 mutant EGFR T790M L858R cells, CellTiter-Glo 2.0, day-5
Experimental: as §1, §2, §3

SMILES	GI50 [1] [nM]	DC50 ([2]; Table 3) [nM]	DC50 ([2]; Table 3A) [nM]	GI50 [3] [nM]
Nc1ncnc2c1c(-c1ccc(Oc3ccccc3)cc1)nn2[C@@H]1CCCN(C(=O)/C=C/COCCOCCOCCOCCOCCOCCOCCOc2cc(Cl)cc(NC(=O)NCc3ccc4c(c3)CN(C3CCC(=O)NC3=O)C4=O)c2)C1 (some centres unmarked) [Compound I-30]	100 to 1000	–	–	–
Nc1ncnc2c1c(-c1ccc(Oc3ccccc3)cc1)nn2[C@@H]1CCCN(C(=O)/C=C/COCCOCCOCCOCCOCCOCCOCCOCCOCCOc2cc(Cl)cc(NC(=O)NCc3ccc4c(c3)CN(C3CCC(=O)NC3=O)C4=O)c2)C1 (some centres unmarked) [Compound I-31]	1000 to 5000	250 to 5000	–	–
Nc1ncnc2c1c(-c1ccc(Oc3ccccc3)cc1)nn2[C@@H]1CCCN(C(=O)/C=C/COCCOCCOCCOCCOCCOCCOCCOCCOCCOCCOCCOc2cc(Cl)cc(NC(=O)NCc3ccc4c(c3)CN(C3CCC(=O)NC3=O)C4=O)c2)C1 (some centres unmarked) [Compound I-32]	1000 to 5000	–	–	–
CN(C/C=C/C(=O)N1CCC[C@@H](n2nc(-c3ccc(Oc4ccccc4)cc3)c3c(N)ncnc32)C1)CCOCCOCCOCCOCCCCCCCCc1cc(Cl)cc(NC(=O)NCc2ccc3c(c2)CN(C2CCC(=O)NC2=O)C3=O)c1 (some centres unmarked) [Compound I-67]	< 100	< 250	–	–
CN(C/C=C/C(=O)N1CCC[C@@H](n2nc(-c3ccc(Oc4ccccc4)cc3)c3c(N)ncnc32)C1)CCOCCOCCOCCOCCOCCOCCCCCCCCc1cc(Cl)cc(NC(=O)NCc2ccc3c(c2)CN(C2CCC(=O)NC2=O)C3=O)c1 (some centres unmarked) [Compound I-72]	< 100	< 250	–	–
CN(C/C=C/C(=O)N1CCC[C@@H](n2nc(-c3ccc(Oc4ccccc4)cc3)c3c(N)ncnc32)C1)CCOCCOCCOCCOCCOCCOCCOCCOCCCCCCCCc1cc(Cl)cc(NC(=O)NCc2ccc3c(c2)CN(C2CCC(=O)NC2=O)C3=O)c1 (some centres unmarked) [Compound I-73]	< 100	< 250	–	–
CN(C/C=C/C(=O)N1CCC([C@@H]2CCNc3c(C(N)=O)c(-c4ccc(Oc5ccccc5)cc4)nn32)CC1)CCOCCOCCOCCOCCCCCCCCc1cc(Cl)cc(NC(=O)NCc2ccc3c(c2)CN(C2CCC(=O)NC2=O)C3=O)c1 (some centres unmarked) [Compound I-74]	< 100	< 250	–	–
CN(C/C=C/C(=O)N1CCC([C@@H]2CCNc3c(C(N)=O)c(-c4ccc(Oc5ccccc5)cc4)nn32)CC1)CCOCCOCCOCCOCCOCCOCCCCCCCCc1cc(Cl)cc(NC(=O)NCc2ccc3c(c2)CN(C2CCC(=O)NC2=O)C3=O)c1 (some centres unmarked) [Compound I-75]	< 100	< 250	–	–
CN(C/C=C/C(=O)N1CCC([C@@H]2CCNc3c(C(N)=O)c(-c4ccc(Oc5ccccc5)cc4)nn32)CC1)CCOCCOCCOCCOCCOCCOCCOCCOCCCCCCCCc1cc(Cl)cc(NC(=O)NCc2ccc3c(c2)CN(C2CCC(=O)NC2=O)C3=O)c1 (some centres unmarked) [Compound I-76]	< 100	< 250	–	–
C=CC(=O)Nc1cc(Nc2nccc(-c3cn(C)c4ccccc34)n2)c(OC)cc1N(C)CCN(C)CCOCCOCCOCCCCCc1cc(Cl)cc(NC(=O)NCc2ccc3c(c2)CN(C2CCC(=O)NC2=O)C3=O)c1 (centres unmarked) [Compound I-102]	–	–	250 to 5000	1000 to 5000
COc1cc(N2CCN(C(=O)COCCOCCOCCOCCOCCOCCOCCCCCc3cc(Cl)cc(NC(=O)NCc4ccc5c(c4)CN(C4CCC(=O)NC4=O)C5=O)c3)CC2)ccc1Nc1ncc(Cl)c(Nc2ccccc2P(C)(C)=O)n1 (centres unmarked) [Compound I-120]	–	–	250 to 5000	1000 to 5000
C=CC(=O)N[C@@H]1CN(c2nc(Nc3cn(CCOCCOCCOCCCCCc4cc(Cl)cc(NC(=O)NCc5ccc6c(c5)CN(C5CCC(=O)NC5=O)C6=O)c4)nc3OC)c3ncn(C)c3n2)C[C@H]1F (some centres unmarked) [Compound I-122]	–	–	< 250	100 to 1000
C=CC(=O)Nc1cc(Nc2nccc(-c3cn(C)c4ccccc34)n2)c(OC)cc1N(C)CCN(C)CCOCCOCCOCCOCCOCCCCCc1cc(Cl)cc(NC(=O)NCc2ccc3c(c2)CN(C2CCC(=O)NC2=O)C3=O)c1 (centres unmarked) [Compound I-125]	–	–	250 to 5000	1000 to 5000
C=CC(=O)NC1CN(c2nc(Nc3cn(CCOCCOCCOCCOCCOCCOCCOCCCCCc4cc(Cl)cc(NC(=O)NCc5ccc6c(c5)CN(C5CCC(=O)NC5=O)C6=O)c4)nc3OC)c3ncn(C)c3n2)C[C@H]1F (some centres unmarked) [Compound I-130]	–	–	250 to 5000	100 to 1000
